In EP1311486B1, “USES OF THALIPORPHINE OR ITS DERIVATIVES IN TREATMENT OF CARDIAC DISEASES AND PREPARATION OF SAME” (Lotus Pharmaceutical Co., Ltd., priority 2000, dated 2002):
Values joined by “and” are separate entries in the source; they are usually repeats but may differ in a detail not shown here. Equal entries are not always repeated. Marks after values point to notes of the source that are not given here.

Experiments:
[1] = system: delayed outward potassium current (IK); test: Inhibition of delayed outward potassium current; settings: guinea pigs
Description: (§1) Moreover, 3-10µM THP prolongs the action potential duration in the atria or ventricles of both rats and guinea pigs (data not shown).

[2] = system: isolated rat hearts; test: Arrhythmia induced by ligation-reperfusion in isolated rat heart
Description: The isolated rat hearts were ligated by a temporary tightening of the silk ligature around the left main coronary artery to induce myocardial ischemia. Reperfusion was achieved by releasing the tension applying to the ligature to induce arrhythmia. 10µM THP was then administered and the atrial and ventricular electrograms were recorded.
(§2) Similarly, 10µM THP can be effective in inhibiting the cardiac arrhythmia induced in the isolated guinea pig heart subjected to global ischemia followed by reperfusion (Table 1). The structure of coronary arteries between rat and guinea pig are not alike, THP, however, can be effective in inhibiting the arrhythmia induced in the isolated heart subjected to ischemia-reperfusion in both animals.

[3] = system: in vivo anesthetized rat; test: Ischemia-induced arrhythmias in the anesthetized rat (30 minutes coronary occlusion)
Description: (§3) Myocardial ischemia was performed by a temporary tightening of the silk ligature around the left main coronary artery. Reperfusion was achieved by releasing the tension applied to the ligature (operated groups). Sham operated animals underwent all surgical procedures, apart from the fact that the silk, passing around the left coronary artery, was not tied (sham groups). Animals were infused with a bolus of THP (3.5x10^-7, 3.5x10^-6, 3.5x10^-5 g/kg), L-NAME (N^∞-nitro-L-arginine methyl ester; 1x10^-3 g/kg) or vehicle (dimethyl sulfoxide/ NaCl 0.9%, 1:10^3; v/v) from a jugular vein 15 minutes before coronary occlusion. The coronary artery was occluded for 30 minutes or 5 minutes followed by 30 minutes reperfusion and with the animals then divided randomly in the following groups: (1) sham + vehicle; (2) sham + THP (3.5x10^-5g/kg); (3) operated + vehicle; (4) operated + THP (3.5x10^-7 g/kg); (5) operated + THP (3.5x10^-6 g/kg); (6) operated + THP (3.5x10^-5 g/kg); (7) operated + L-NAME (1x10^-3 g/kg) + THP (3.5x10^-5 g/kg). Before and during the ischemia or reperfusion period, heart rate (HR), blood pressure (BP) and ECG changes were recorded. Ventricular ectopic activity was evaluated according to the diagnostic criteria advocated in the Lambeth Convention. The incidence and duration of ventricular tachyarrhythmias, including ventricular tachycardia (VT) and ventricular fibrillation (VF), in surviving animals was determined. The Mann-Whitney rank-sum test was used to analyze the differences in the duration of VT and VF between vehicle and drug treated groups. The BP and HR changes between vehicle and drug treated rats in the arrhythmia study were analyzed by ANOVA (analysis of variance) followed by Bonferroni's test. The difference in the percentage incidence of VT, VF and mortality rate was analyzed with a Chi-square test. Table 2 Effect of THP on ischemia-induced arrhythmias in the in vivo anesthetized rat
In ischemic condition, severe ventricular arrhythmias in the vehicle group begins after 6-7 minutes of coronary artery occlusion, peaks after 8-12 minutes, and normally subsides after approximately 15 minutes from initiation. The duration of VF is calculated to be 32.1±8.9 seconds, and the duration of VT is 36.8±8.8 seconds. […] Administration of THP at 3.5x10^-5 g/kg results in a decrease of the incidence of VT and VF to 10% and 0%, respectively (p<0.05). […] A particular important finding is the very effective reduction of mortality even at very low dose of THP 3.5x 10^-7 g/kg.

[4] = system: isolated guinea pig hearts; test: Reperfusion-induced ventricular fibrillation in isolated guinea pig hearts subjected to global ischemia
Description: The isolated guinea pig hearts were ligated by global ischemia. Reperfusion was achieved by releasing the tension applyied to the ligature. Various concentrations of THP were then administered and the ventricular fibrillarion (VF) was recorded. Table 1 Effects of THP on reperfusion-induced ventricular fibrillation in isolated guinea pig hearts subjected to global ischemia
as §2

[5] = system: atria or ventricles; test: Action potential duration in atria or ventricles; settings: 3-10µM, data not shown
Description: as §1

[6] = Superoxide anion scavenging, xanthine/xanthine oxidase system; format: biochemical
[7] = system: inward calcium current; settings: Su MJ, et al., Eur. J. Pharmacol., 1994; cited from earlier work
[8] = system: inward sodium current; settings: Su MJ, et al., Eur. J. Pharmacol., 1994; cited from earlier work
[9] = system: in vivo anesthetized rat; test: Reperfusion-induced arrhythmias in the anesthetized rat (5 minutes ischemia, 30 minutes reperfusion)
Description: as §3
The severity of reperfusion induced-arrhythmias is critically dependent upon the duration of the preceding period of ischemia. Thus, the protocol of a 5 minutes period of ischemia followed by a 30 minutes period of reperfusion is selected for producing the highest incidence of rhythm disturbance. […] In contrast, animals pretreated with THP (3.5x10^-6 and 3.5x10^-5 g/kg), experienced a drastic reduction in the incidence of VF from 88% to 29% and 13% (p<0.05) and the duration of VF from 92.4±20.5 seconds to 9.2±8.3 and 1.2±1.2 seconds (p<0.05). The mortality rate also decreases from 75% to 0% by 3.5x10^-6 g/kg THP (p<0.05). However, L-NAME coadministration only partially antagonizes the antiarrhythmic activity and mortality prevention effect of thaliporphine (3.5x10^-5 g/kg).

With `COc1cc2c(cc1OC)-c1c(O)c(OC)cc3c1C(C2)N(C)CC3` (single isomer, unassigned; (+)) [THP, (+)-Thaliporphine] the “delayed outward potassium current (IK)” value [1] was “markedly inhibit”, the “effect on polymorphic ventricular tachyrhythmia induced by ischemia-reperfusion” value ([2]; 10 µM, FIG. 5 (a)) was “conversion of polymorphic ventricular tachyrhythmia induced by ischemia-reperfusion to normal sinus rhythm” and the IC50 ([2]; 0.5 h, isolated rat heart, 30 minutes ligation followed by reperfusion, 3-30µM, read-out: IC50, reversing the cardiac arrhythmia) was 15.7 µM. For the same compound, the “Mortality (%)” value ([3]; THP 3.5x10^-5 g/kg i.v.) was 0%, the “VF Duration” value ([3]; THP 3.5x10^-5 g/kg i.v.) was 0.0 ± 0.0 s and the “VF Incidence(%)” value ([3]; THP 3.5x10^-5 g/kg i.v.) was 0%. For the same compound, the “VT Duration” value ([3]; THP 3.5x10^-5 g/kg i.v.) was 0.3 ± 0.3 s, the “VT Incidence(%)” value ([3]; THP 3.5x10^-5 g/kg i.v.) was 10% and the “Mortality (%)” value ([3]; THP 3.5x10^-6 g/kg i.v.) was 0%. The “VF Duration” value ([3]; THP 3.5x10^-6 g/kg i.v.) was 0.5 ± 0.5 s, the “VF Incidence(%)” value ([3]; THP 3.5x10^-6 g/kg i.v.) was 10% and the “VT Duration” value ([3]; THP 3.5x10^-6 g/kg i.v.) was 5.7 ± 3.3 s. For the same compound, the “VT Incidence(%)” value ([3]; THP 3.5x10^-6 g/kg i.v.) was 50* %, the “Mortality (%)” value ([3]; THP 3.5x10^-7 g/kg i.v.) was 0% and the “VF Duration” value ([3]; THP 3.5x10^-7 g/kg i.v.) was 6.7 ± 4.9 s. The “VF Incidence(%)” value ([3]; THP 3.5x10^-7 g/kg i.v.) was 20%, the “VT Duration” value ([3]; THP 3.5x10^-7 g/kg i.v.) was 16.1 ± 7.4 s and the “VT Incidence(%)” value ([3]; THP 3.5x10^-7 g/kg i.v.) was 60%. The “%VF” value ([4]; 3 µM) was 25* %, the “VF (number of hearts)” value ([4]; 3 µM, N 8) was 2 and the “%VF” value ([4]; 10 µM) was 0* %. For the same compound, the “VF (number of hearts)” value ([4]; 10 µM, N 6) was 0, the action potential duration ([5]; atria or ventricles of guinea pigs) was “prolongs” and the action potential duration ([5]; atria or ventricles of rats) was “prolongs”. The EC50 [6] was 12.6 µM, the inward calcium current [7] was “enhance” and the inward sodium current [8] was “inhibit”. The “Mortality (%)” value ([9]; THP 3.5x10^-5 g/kg i.v.) was 0* %, the “VF Duration” value ([9]; THP 3.5x10^-5 g/kg i.v.) was 1.2 ± 1.2 s and the “VF Incidence(%)” value ([9]; THP 3.5x10^-5 g/kg i.v.) was 13% and 14* %. The “VT Duration” value ([9]; THP 3.5x10^-5 g/kg i.v.) was 7.6 ± 3.2 s, the “VT Incidence(%)” value ([9]; THP 3.5x10^-5 g/kg i.v.) was 71% and the “Mortality (%)” value ([9]; THP 3.5x10^-6 g/kg i.v.) was 0%. The “VF Duration” value ([9]; THP 3.5x10^-6 g/kg i.v.) was 9.2 ± 8.3 s, the “VF Incidence(%)” value ([9]; THP 3.5x10^-6 g/kg i.v.) was 29% and the “VT Duration” value ([9]; THP 3.5x10^-6 g/kg i.v.) was 14.6 ± 9.1 s. For the same compound, the “VT Incidence(%)” value ([9]; THP 3.5x10^-6 g/kg i.v.) was 57%, the “Mortality (%)” value ([9]; THP 3.5x10^-7 g/kg i.v.) was 43% and the “VF Duration” value ([9]; THP 3.5x10^-7 g/kg i.v.) was 75.5 ± 15.6 s. The “VF Incidence(%)” value ([9]; THP 3.5x10^-7 g/kg i.v.) was 86%, the “VT Duration” value ([9]; THP 3.5x10^-7 g/kg i.v.) was 28.6 ± 10.4 s and the “VT Incidence(%)” value ([9]; THP 3.5x10^-7 g/kg i.v.) was 86%.
